Data reported in ChEMBL document CHEMBL4732091, “Design, synthesis and biological evaluation of novel thiosemicarbazone-indole derivatives targeting prostate cancer cells” (Eur J Med Chem, 2021).
Activity calls are given as the source filed them. The rule behind the calls is not given here.

Tests used:
[1] = Toxicity in C57BL/6 mouse assessed as effect on spleen at 2 mg/kg, IG measured after 2 weeks by hematoxylin and eosin staining based imaging analysis; format: organism-based; settings: in vivo, po, 336 h
PC-3 [2] = assay: Induction of ROS generation in human PC-3 cells assessed as increase in intracellular ROS level measured after 48 hrs by DCFH-DA staining based flowcytometry method; format: functional, cell-based; settings: dose 25-100 nM
DU-145 [3] = assay: Cell cycle arrest in human DU-145 cells assessed as accumulation of cells in G1/S phase by measuring upregulation of p27 measured after 48 hrs by Western blot assay; format: functional, cell-based; settings: dose 1.5-6 µM
PC-3 [4] = assay: Induction of ROS generation in human PC-3 cells assessed as intracellular ROS level at 500 nM measured after 48 hrs by DCFH-DA staining based flowcytometry method (reference value: 55.2 %); format: functional
PC-3 [5] = assay: Antitumour activity against human PC-3 cells xenografted in BALB/c-NU mouse assessed as reduction in tumour growth at 25 mg/kg, IG qd measured after 21 days relative to control; format: functional; design: scale not given: the % may be the effect or the level left; settings: time 21 day
DU-145 [6] = assay: Induction of apoptosis in human DU-145 cells assessed as increase in Bax expression at 0.5 to 2 uM measured by Western blot assay; format: functional, cell-based; settings: dose 0.5-2 µM
PC-3 [7] = assay: Activation of MAPK signaling in human PC-3 cells assessed as increase in phosphorylated JNK (Thr 183/Tyr 185) at 125 to 500 nM measured by Western blot assay; format: cell-based; settings: filed as activator, dose 125-500 nM
PC-3 [8] = assay: Induction of apoptosis in human PC-3 cells assessed as formation of apoptotic bodies at 25 to 100 nM measured after 72 hrs by Hoechst staining based fluorescence microscope method; format: functional, cell-based; settings: dose 25-100 nM
PC-3 [9] = assay: Induction of cell cycle arrest in human PC-3 cells assessed as accumulation of cells in G1/S phase at 250 nM measured after 48 hrs by propidium iodide staining based flowcytometry method (reference value: 19.23%); format: functional
PC-3 [10] = assay: Induction of apoptosis in human PC-3 cells assessed as early apoptotic cells at 25 nM measured after 72 hrs by Annexin V-FITC/propidium iodide staining based flow cytometry method (reference value: 0.452 %); format: functional
MCF7 = assay: Antiproliferative activity against human MCF7 cell line cells assessed as inhibition of cell proliferation measured after 72 hrs by MTT assay; format: functional, cell-based; settings: MCF7, 72 h
DU-145 [11] = assay: Cytotoxicity against human DU-145 cells assessed as cell viability pre-treated with SB203580 for 4 hrs followed by compound treatment and measured after 72 hrs by MTT assay; format: functional, cell-based
PC-3 [12] = assay: Induction of apoptosis in human PC-3 cells assessed as necrotic cells at 50 nM measured after 72 hrs by Annexin V-FITC/propidium iodide staining based flow cytometry method (reference value: 1.2 %); format: functional
[13] = Toxicity in C57BL/6 mouse assessed as effect on liver at 2 mg/kg, IG measured after 2 weeks by hematoxylin and eosin staining based imaging analysis; format: organism-based; settings: in vivo, po, 336 h
PC-3 [14] = assay: Induction of apoptosis in human PC-3 cells assessed as necrotic cells at 25 nM measured after 72 hrs by Annexin V-FITC/propidium iodide staining based flow cytometry method (reference value: 1.2 %); format: functional
[15] = Cytotoxicity against human WPMY-1 cell line cells assessed as inhibition of cell proliferation measured after 72 hrs by MTT assay; format: cell-based; settings: WPMY-1, 72 h
PC-3 [16] = assay: Induction of apoptosis in human PC-3 cells assessed as late apoptotic cells at 100 nM measured after 72 hrs by Annexin V-FITC/propidium iodide staining based flow cytometry method (reference value: 1.01 %); format: functional
PC-3 [17] = assay: Induction of cell cycle arrest in human PC-3 cells assessed as accumulation of cells in G1/S phase at 500 nM measured after 48 hrs by propidium iodide staining based flowcytometry method (reference value: 19.23%); format: functional
PC-3 [18] = assay: Induction of apoptosis in human PC-3 cells assessed as viable cells at 100 nM measured after 72 hrs by Annexin V-FITC/propidium iodide staining based flow cytometry method (reference value: 97.2 %); format: functional; settings: read-out: Activity
PC-3 [19] = assay: Antiproliferative activity against human PC-3 cells assessed as inhibition of cell proliferation at 0.156 to 20 uM by MTT assay; format: functional, cell-based; settings: dose 0.156-20 µM, time 24-72 hrs, TDE = time-dependent effect
DU-145 [20] = assay: Induction of apoptosis in human DU-145 cells assessed as nuclear fragmentation at 0.5 to 2 uM measured after 72 hrs by Hoechst staining based fluorescence method; format: functional, cell-based; settings: dose 0.5-2 µM
DU-145 [21] = assay: Activation of MAPK signaling in human DU-145 cells assessed as increase in phosphorylated p38 (Thr 180/Tyr 182) at 125 to 500 nM measured by Western blot assay; format: cell-based; settings: filed as activator, dose 125-500 nM
DU-145 [22] = assay: Induction of apoptosis in human DU-145 cells assessed as late apoptotic cells at 1 uM measured after 72 hrs by Annexin V-FITC/propidium iodide staining based flow cytometry method (reference value: 1.77 %); format: functional
PC-3 [23] = assay: Activation of MAPK signaling in human PC-3 cells assessed as increase in phosphorylated p38 (Thr 180/Tyr 182) at 125 to 500 nM measured by Western blot assay; format: cell-based; settings: filed as activator, dose 125-500 nM
DU-145 [24] = assay: Induction of apoptosis in human DU-145 cells assessed as viable cells at 2 uM measured after 72 hrs by Annexin V-FITC/propidium iodide staining based flow cytometry method (reference value: 96.3 %); format: functional; settings: read-out: Activity
PC-3 [25] = assay: Induction of apoptosis in human PC-3 cells assessed as cell rounding at 25 to 100 nM measured after 72 hrs by Hoechst staining based fluorescence microscope method; format: functional; settings: dose 25-100 nM
DU-145 [26] = assay: Induction of apoptosis in human DU-145 cells assessed as necrotic cells at 2 uM measured after 72 hrs by Annexin V-FITC/propidium iodide staining based flow cytometry method (reference value: 1.13 %); format: functional
DU-145 [27] = assay: Induction of ROS generation in human DU-145 cells assessed as increase in intracellular ROS level measured after 48 hrs by DCFH-DA staining based flowcytometry method; format: functional, cell-based; settings: dose 0.5-2 µM
DU-145 [28] = assay: Induction of ROS generation in human DU-145 cells assessed as intracellular ROS level at 3 uM pretreated with NAC followed by compound treatment measured after 48 hrs by DCFH-DA staining based flowcytometry method (reference value: 75.1 %); format: functional
DU-145 [29] = assay: Induction of apoptosis in human DU-145 cells assessed as late apoptotic cells at 0.5 uM measured after 72 hrs by Annexin V-FITC/propidium iodide staining based flow cytometry method (reference value: 1.77 %); format: functional
PC-3 [30] = assay: Induction of apoptosis in human PC-3 cells assessed as viable cells at 25 nM measured after 72 hrs by Annexin V-FITC/propidium iodide staining based flow cytometry method (reference value: 97.2 %); format: functional; settings: read-out: Activity
DU-145 [31] = assay: Induction of ROS generation in human DU-145 cells assessed as intracellular ROS level at 1.5 uM measured after 48 hrs by DCFH-DA staining based flowcytometry method (reference value: 52 %); format: functional
PC-3 [32] = assay: Induction of apoptosis in human PC-3 cells assessed as increase in PARP expression at 25 to 100 nM measured by Western blot assay; format: functional, cell-based; settings: dose 25-100 nM

- IC50 (MCF7): 5.33 µM
Structure (SMILES): Cc1ccc(/C=N/NC(=S)Nc2ccc(C(=O)NCCc3c(C)[nH]c4ccccc34)cc2)nc1
- Activity [1]: Non-Toxic
- Activity (PC-3 [2]): Dose-dependent effect
- Activity (DU-145 [3]): Active
- Activity (PC-3 [4]): 98.9%
- Activity (PC-3 [5]): 43.4%
- Activity (DU-145 [6]): Active
- Activity (PC-3 [7]): Active
- Activity (PC-3 [8]): Active
- Activity (PC-3 [9]): 29.04%
- Activity (PC-3 [10]): 2.32%
- inhibition (DU-145 [11]): inactive
- Activity (PC-3 [12]): 8.91%
- Activity [13]: Non-Toxic
- Activity (PC-3 [14]): 2.06%
- IC50 [15]: 19.5 µM
- Activity (PC-3 [16]): 56.2%
- Activity (PC-3 [17]): 49.02%
- viability at 0.1 µM (PC-3 [18]): 35.9%
- Activity (PC-3 [19]): Tde
- Activity (DU-145 [20]): Active
- Activity (DU-145 [21]): Active
- Activity (DU-145 [22]): 22.5%
- Activity (PC-3 [23]): Active
- viability at 2 µM (DU-145 [24]): 43.8%
- Activity (PC-3 [25]): Active
- Activity (DU-145 [26]): 7.23%
- Activity (DU-145 [27]): Dose-dependent effect
- Activity (DU-145 [28]): 60.1%
- Activity (DU-145 [29]): 3.78%
- viability at 0.025 µM (PC-3 [30]): 98.5%
- Activity (DU-145 [31]): 71.3%
- Activity (PC-3 [32]): Active
